Source: patent US11117918B2, “Enzyme-directed immunostimulant and uses thereof” (Washington State University, priority 2016, dated 2021)

Key:
[1] = system: RAW-Blue cells; test: RAW-Blue colorimetric assay (NF-κB transcription); format: cell-based
Method: Measurement of RAW-Blue cell activation was performed similarly to manufacturer instructions. For the NF-κB assay, 1×10^5 RAW-Blue cells were seeded in an optically clear bottomed 96-well plate in 180 μL of complete assay media (identical to B16 media) at a density of 1×10^5 cells/well. For co-culture experiments with RAW-Blue and B16 or β-galactosidase-enriched B16 cells, RAW-Blue cells were seeded at a density of 1×10^5 cells/well and were allowed to adhere for 4 h before the addition of the B16 cells, which were seeded at a density of 1×10^5 cells/well. For co-culture experiments with RAW-Blue and β-galactosidase-enriched B16 cells, RAW-Blue cells were seeded at a density of 1×10^5 cells/well and were allowed to adhere for 4 h before the addition off β-galactosidase-enriched B16 cells, which were seeded at a density of 1×10^5 cells/well.
For experiments with β-gal, a stock solution (500 U/mL, where 1 U=1 μmol/min) was used. A final enzymatic activity of 1 U/well was achieved by addition of 2 μL of the 500 U/mL stock solution to each well. Imiquimod or (6) were prepared as 1.15 and 1.49 mg/mL stock solutions, respectively, in DMSO, and were added to the appropriate wells to achieve the specified final concentrations in each experiment ranging from 0.1 to 10 μM. […] The PNPP assays were incubated for 3 h (37° C., 5% CO2), and the absorbance was measured at 405 nm. […]

[2] = system: JAWSII cells; test: JAWSII ELISA cytokine production (TNF, IL-6, IL-12); format: cell-based, murine
Method: Measurement of JAWSII cytokine production was performed similarly to manufacturer instructions. The cytokines analyzed were IL-12, IL-6, and TNF. For the cytokine assays, 1×10^5 JAWSII cells were seeded in an optically clear bottomed 6-well plate in 1 mL of complete assay media (identical to JAWSII growth media) for a density of 1×10^5 cells/well. Cells were incubated for 42 h. For co-culture experiments with JAWSII and B16 or β-galactosidase-enriched B16 cells, JAWSII cells were seeded at a density of 1×10^5 cells/well and allowed to adhere for 42 h before the addition of B16 cells, which were seeded at a density of 1×10^5 cells/well. For co-culture experiments with JAWSII and β-galactosidase-enriched B16 cells, JAWSII cells were seeded at a density of 1×10^5 cells/well and allowed to adhere for 42 h before the addition of β-galactosidase-enriched B16 cells, which were seeded at a density of 1×10^5 cells/well.
For experiments with β-gal, a stock solution (500 U/mL, where 1 U=1 μmol/min) was used. A final enzymatic activity of 1 U/well was achieved by addition of 2 μL of the 500 U/mL stock solution to each well. Stock solutions of Imiquimod or (6) in DMSO (1.15 and 1.49 mg/mL, respectively) were then added to the appropriate wells to achieve a final concentration of 5 μM. The cells were incubated for 16 h (37° C., 5% CO2) before supernatant was collected. Cells were pelletized (200 RCF, 10 min) and removed. Supernatant was analyzed for cytokines without further dilution according to manufacturer instructions for ELISA. Absorbance was analyzed at 450 nm and standard curves were used to determine absolute cytokine concentrations.

[3] = system: AT3B-1 prostate cancer cell line (overexpresses P-glycoprotein 1); test: AT3B-1 cells treated with pro-immunostimulant, absorbance at 420 nm; format: cell-based, rat; conditions: 10 mM dose, 2−200×10^4 cells/well, 72 h
Method: To evaluate the disclosed compounds for their effect against multidrug-resistant cells and possible pathogen infection, compound 6 was exposed to a multidrug-resistant AT3B-1 prostate cancer cell line that is known to overexpress P-glycoprotein 1 (P-gp). AT3B-1 cells were plated in an optically clear bottomed 96-well plate at a range of densities (2−200×10^4 cells/well) in 180 μL of complete cell media. Each cell density was tested in triplicate with and without a 10 mM dose of compound 6. For wells with compound 6, 20 μL of a 100 mM stock solution of compound 6 in DMSO was used. As a control experiment, compound 6 was converted by exogenous α-Mannosidase (0.1 U/mL) in triplicate. The plate was incubated (37° C., 5% CO2) for 72 h before measuring the absorbance at 420 nm.
The AT3B-1 cell line (ATCC CRL-2375, rat prostate epithelial malignant carcinoma) were grown in complete culture media composed of Roswell Park Memorial Institute (RPMI) 1640 medium with 4.5 g/L glucose, 2 mM L-glutamine, 10,000 U/mL penstrep, 10 mM HEPES and supplemented with 10% HI-FBS and 1 μM doxorubicin. Media was changed every 3-4 days omitting the doxorubicin, and cells were passaged once per week. Passaging involved changing media, counting, and seeding 3×10^5 cells in 35 mL of new complete media in a new T-175 culture flask.

In the case of “4-Imiquimod-2-nitrophenyl-galactopyranoside [compound 6]”, the NF-κB transcription ([1]; co-cultures of β-galactosidase-enriched B16 cells and RAW-Blue cells, relative to unaltered B16 co-cultures or RAW-Blue cells alone) is reported as “enhanced”, the RAW-Blue cell activity ([1]; compound alone, relative to compound with 1 U β-galactosidase or Imiquimod, 16 h) is reported as “abrogated” and the “pro-inflammatory cytokine production (TNF, IL-6, IL-12)” value ([2]; 5 μm, without β-galactosidase) is reported as “not induce significant pro-inflammatory cytokine production”. The pro-inflammatory cytokine production ([2]; co-cultures of JAWSII and β-galactosidase-enriched B16 melanoma cells) was “resulted in the production of pro-inflammatory cytokines”, the “cytokine production relative to Imiquimod, all three cytokines (TNF, IL-6, IL-12)” value ([2]; with exogenous β-galactosidase, equimolar Imiquimod) was > 80% and the “interaction with P-gp” value [3] was “interacting with P-gp”.
